# Test results as given in ChEMBL document CHEMBL3885881, “DrugMatrix”.
# Species on record: Rattus norvegicus
# Experiment: DrugMatrix - Regimen: Daily Repeat
# Assay type: toxicity, organism-based, Sprague-Dawley
# Parameters: regimen Daily Repeat, gender Male, age 6-8 weeks
# Conditions: in vivo, po, 10 mg/kg, route oral GAVAGE, dose level Low, vehicle .5 % CMC; for ABSOLUTE BASOPHIL / ABSOLUTE EOSINOPHIL / ABSOLUTE LYMPHOCYTE / ABSOLUTE MONOCYTE / ABSOLUTE SEGMENTED NEUTROPHIL / BASOPHIL / EOSINOPHIL / ERYTHROCYTE COUNT / HEMATOCRIT / HEMOGLOBIN / LEUKOCYTE COUNT / LYMPHOCYTE / MEAN CORPUSCULAR HEMOGLOBIN / MEAN CORPUSCULAR HEMOGLOBIN CONCENTRATION / MEAN CORPUSCULAR VOLUME / MONOCYTE / NEUTROPHIL / NUCLEATED RED BLOOD CELLS / PLATELET COUNT: tissue Blood; for ALANINE AMINOTRANSFERASE / ALBUMIN / ALKALINE PHOSPHATASE / ASPARTATE AMINOTRANSFERASE / BLOOD UREA NITROGEN / CARBON DIOXIDE / CHLORIDE / CHOLESTEROL / CREATINE PHOSPHOKINASE / CREATININE / GLUCOSE / LACTATE DEHYDROGENASE / LIPASE / PHOSPHORUS / POTASSIUM / SODIUM / TOTAL BILIRUBIN / TOTAL PROTEIN / URIC ACID: tissue Plasma
compound,measurement,setting,value
Fc1ccc(C(c2ccc(F)cc2)N2CCN(C/C=C/c3ccccc3)CC2)cc1 [FLUNARIZINE],ABSOLUTE BASOPHIL,"72 h, time 3 day",0 CELLS/uL
same,ABSOLUTE EOSINOPHIL,"72 h, time 3 day",0 CELLS/uL
same,ABSOLUTE LYMPHOCYTE,"72 h, time 3 day",15150 CELLS/uL
same,ABSOLUTE MONOCYTE,"72 h, time 3 day",74.33 CELLS/uL
same,ABSOLUTE SEGMENTED NEUTROPHIL,"72 h, time 3 day",1309 CELLS/uL
same,BASOPHIL,"72 h, time 3 day",0%
same,EOSINOPHIL,"72 h, time 3 day",0%
same,ERYTHROCYTE COUNT,"72 h, time 3 day",6.09 x10E6/uL
same,HEMATOCRIT,"72 h, time 3 day",37.17%
same,HEMOGLOBIN,"72 h, time 3 day",14.73 G/DL
same,LEUKOCYTE COUNT,"72 h, time 3 day",16.53 x10E3/uL
same,LYMPHOCYTE,"72 h, time 3 day",91.33%
same,MEAN CORPUSCULAR HEMOGLOBIN,"72 h, time 3 day",24.2 pg
same,MEAN CORPUSCULAR HEMOGLOBIN CONCENTRATION,"72 h, time 3 day",39.67 G/DL
same,MEAN CORPUSCULAR VOLUME,"72 h, time 3 day",61.03 fL
same,MONOCYTE,"72 h, time 3 day",0.33%
same,NEUTROPHIL,"72 h, time 3 day",8.33%
same,NUCLEATED RED BLOOD CELLS,"72 h, time 3 day",0.33 /100WBC
same,PLATELET COUNT,"72 h, time 3 day",1291 x10E3/uL
same,ALANINE AMINOTRANSFERASE,"72 h, time 3 day",42.67 u/L
same,ALBUMIN,"72 h, time 3 day",4.7 G/DL
same,ALKALINE PHOSPHATASE,"72 h, time 3 day",347.33 u/L
same,ASPARTATE AMINOTRANSFERASE,"72 h, time 3 day",90.33 u/L
same,BLOOD UREA NITROGEN,"72 h, time 3 day",18 mg/dL
same,CARBON DIOXIDE,"72 h, time 3 day",20 mmol/L
same,CHLORIDE,"72 h, time 3 day",101 MEQ/L
same,CHOLESTEROL,"72 h, time 3 day",87.67 mg/dL
same,CREATINE PHOSPHOKINASE,"72 h, time 3 day",406.67 u/L
same,CREATININE,"72 h, time 3 day",0.23 mg/dL
same,GLUCOSE,"72 h, time 3 day",149 mg/dL
same,LACTATE DEHYDROGENASE,"72 h, time 3 day",371.67 u/L
same,LIPASE,"72 h, time 3 day",9 u/L
same,PHOSPHORUS,"72 h, time 3 day",12.27 mg/dL
same,POTASSIUM,"72 h, time 3 day",6.75 MEQ/L
same,SODIUM,"72 h, time 3 day",143.6 MEQ/L
same,TOTAL BILIRUBIN,"72 h, time 3 day",0.2 mg/dL
same,TOTAL PROTEIN,"72 h, time 3 day",6.57 G/DL
same,URIC ACID,"72 h, time 3 day",1.67 mg/dL
same,ABSOLUTE BASOPHIL,"120 h, time 5 day",0 CELLS/uL
same,ABSOLUTE EOSINOPHIL,"120 h, time 5 day",122 CELLS/uL
same,ABSOLUTE LYMPHOCYTE,"120 h, time 5 day",14703 CELLS/uL
same,ABSOLUTE MONOCYTE,"120 h, time 5 day",297.33 CELLS/uL
same,ABSOLUTE SEGMENTED NEUTROPHIL,"120 h, time 5 day",711 CELLS/uL
same,BASOPHIL,"120 h, time 5 day",0%
same,EOSINOPHIL,"120 h, time 5 day",0.67%
same,ERYTHROCYTE COUNT,"120 h, time 5 day",5.61 x10E6/uL
same,HEMATOCRIT,"120 h, time 5 day",36.03%
same,HEMOGLOBIN,"120 h, time 5 day",14.1 G/DL
same,LEUKOCYTE COUNT,"120 h, time 5 day",15.83 x10E3/uL
same,LYMPHOCYTE,"120 h, time 5 day",93%
same,MEAN CORPUSCULAR HEMOGLOBIN,"120 h, time 5 day",25.13 pg
same,MEAN CORPUSCULAR HEMOGLOBIN CONCENTRATION,"120 h, time 5 day",39.17 G/DL
same,MEAN CORPUSCULAR VOLUME,"120 h, time 5 day",64.2 fL
same,MONOCYTE,"120 h, time 5 day",2%
same,NEUTROPHIL,"120 h, time 5 day",4.33%
same,NUCLEATED RED BLOOD CELLS,"120 h, time 5 day",0 /100WBC
same,PLATELET COUNT,"120 h, time 5 day",1316 x10E3/uL
same,ALANINE AMINOTRANSFERASE,"120 h, time 5 day",52 u/L
same,ALBUMIN,"120 h, time 5 day",4.43 G/DL
same,ALKALINE PHOSPHATASE,"120 h, time 5 day",419 u/L
same,ASPARTATE AMINOTRANSFERASE,"120 h, time 5 day",84.33 u/L
same,BLOOD UREA NITROGEN,"120 h, time 5 day",14.67 mg/dL
same,CARBON DIOXIDE,"120 h, time 5 day",24 mmol/L
same,CHLORIDE,"120 h, time 5 day",103.67 MEQ/L
same,CHOLESTEROL,"120 h, time 5 day",74.33 mg/dL
same,CREATINE PHOSPHOKINASE,"120 h, time 5 day",286 u/L
same,CREATININE,"120 h, time 5 day",0.11 mg/dL
same,GLUCOSE,"120 h, time 5 day",150.67 mg/dL
same,LACTATE DEHYDROGENASE,"120 h, time 5 day",187.33 u/L
same,LIPASE,"120 h, time 5 day",8.67 u/L
same,PHOSPHORUS,"120 h, time 5 day",14.07 mg/dL
same,POTASSIUM,"120 h, time 5 day",6.62 MEQ/L
same,SODIUM,"120 h, time 5 day",147.27 MEQ/L
same,TOTAL BILIRUBIN,"120 h, time 5 day",0.2 mg/dL
same,TOTAL PROTEIN,"120 h, time 5 day",6.03 G/DL
same,URIC ACID,"120 h, time 5 day",1.67 mg/dL
